Assay results published in patent US9974849B2, “Human Papilloma virus therapeutic vaccine” (The Board of Trustees of the University of Arkansas, priority 2013, dated 2018).

Assays:
[1] = test system: CD3 T cells co-cultured with autologous LCs; test: T cell proliferation induced by treated LCs (alamarBlue); assay type: cell-based, human; conditions: 7 days co-culture
[2] = Solubilizing HPV E6 peptides in buffer; assay type: physicochemical
Description: We attempted to make a pharmaceutical formulation with four HPV E6 peptides. The 4 peptides were peptides consisting of residues 1-45, 46-80, 81-115, and 116-158 of SEQ ID NO:1. Each of the peptides was amidated at its carboxyl terminus and acetylated at its amino terminus. The peptides were each chemically synthesized.
For the pharmaceutical formulation, this was mixed with trehalose as a stabilizing agent and glycine as tonicity modifier. The final concentrations of the formulation were 10 mM glutamate, 1.0% w/v trehalose, 2.0% w/v glycine, and 0.714 mg/ml each of the four peptides.

Substance | Subjects with measurable proliferation (increased fluorescence of ≥5000) [1] | T-cell proliferation ([1]; over media) | Solubility ([2]; added to 10 mM glutamate, pH 4.0 solution already containing solubilized E6 1-45, E6 46-80, E6 116-158, 5 mg/ml for each of the four peptides) | Solubility ([2]; alone, in any suitable buffer for manufacturing)
tetanus toxoid | subjects 2 and 5 | no significant increase over media | – | –
Ac-SEYRHYCYSLYGTTLEQQYNK PLCDLLIRCINCQK-NH2 [E6 81-115] | – | – | could be solubilized and will stay soluble | insoluble
